pIC50: −log10 of the molar value.
Experiments:
[1] = molecular target: Fibroblast growth factor receptor 2 (Homo sapiens, UniProt P21802)
Description: Inhibition of human recombinant cytoplasmic domain FGFR2 (8 to 134 residues) incubated for 120 mins by mobility shift assay

[2] = molecular target: Epidermal growth factor receptor (Homo sapiens, UniProt P00533, EX19DEL/T790M); test: Inhibition of recombinant human EGFR del19/T790M using biotinEEPLYWSFPAKKK-NH2 as substrate incubated for 120 mins by TR-FRET assay
SNU-16 = test: cells; conditions: Homo sapiens, SNU-16, 72 h
Description: Cytotoxicity against human SNU-16 cells assessed as inhibition of cell growth measured after 72 hrs by cell titer glo assay

SNU1 = test: cells; conditions: Homo sapiens, SNU1, 72 h
Description: Cytotoxicity against human SNU1 cells assessed as inhibition of cell growth measured after 72 hrs by cell titer glo assay

[3] = Microsomal stability in mouse liver microsomes assessed as parent compound remaining measured after 30 mins in presence of NADPH generating system by LC-MS analysis; format: ADME, Microsome; conditions: read-out: Stability
[4] = Microsomal stability in human liver microsomes assessed as parent compound remaining measured after 30 mins in presence of NADPH generating system by LC-MS analysis; format: ADME, Microsome; conditions: read-out: Stability
[5] = Drug exposure in BALB/cA mouse assessed as AUC(0 to 6 hrs) of drug at 50 mg/kg, po measured after 6 hrs by LC-MS analysis; format: ADME, organism-based; design: dose 50 mg/kg, time 6 hrs, route po; conditions: in vivo
[6] = Lipophilicity, logD of the compound at pH 7.4; format: physicochemical; conditions: buffer
[7] = molecular target: Vascular endothelial growth factor receptor 2 (Homo sapiens, UniProt P35968)
Vascular endothelial growth factor receptor 2, sequence (P35968 whole entry, the tested form may be a part): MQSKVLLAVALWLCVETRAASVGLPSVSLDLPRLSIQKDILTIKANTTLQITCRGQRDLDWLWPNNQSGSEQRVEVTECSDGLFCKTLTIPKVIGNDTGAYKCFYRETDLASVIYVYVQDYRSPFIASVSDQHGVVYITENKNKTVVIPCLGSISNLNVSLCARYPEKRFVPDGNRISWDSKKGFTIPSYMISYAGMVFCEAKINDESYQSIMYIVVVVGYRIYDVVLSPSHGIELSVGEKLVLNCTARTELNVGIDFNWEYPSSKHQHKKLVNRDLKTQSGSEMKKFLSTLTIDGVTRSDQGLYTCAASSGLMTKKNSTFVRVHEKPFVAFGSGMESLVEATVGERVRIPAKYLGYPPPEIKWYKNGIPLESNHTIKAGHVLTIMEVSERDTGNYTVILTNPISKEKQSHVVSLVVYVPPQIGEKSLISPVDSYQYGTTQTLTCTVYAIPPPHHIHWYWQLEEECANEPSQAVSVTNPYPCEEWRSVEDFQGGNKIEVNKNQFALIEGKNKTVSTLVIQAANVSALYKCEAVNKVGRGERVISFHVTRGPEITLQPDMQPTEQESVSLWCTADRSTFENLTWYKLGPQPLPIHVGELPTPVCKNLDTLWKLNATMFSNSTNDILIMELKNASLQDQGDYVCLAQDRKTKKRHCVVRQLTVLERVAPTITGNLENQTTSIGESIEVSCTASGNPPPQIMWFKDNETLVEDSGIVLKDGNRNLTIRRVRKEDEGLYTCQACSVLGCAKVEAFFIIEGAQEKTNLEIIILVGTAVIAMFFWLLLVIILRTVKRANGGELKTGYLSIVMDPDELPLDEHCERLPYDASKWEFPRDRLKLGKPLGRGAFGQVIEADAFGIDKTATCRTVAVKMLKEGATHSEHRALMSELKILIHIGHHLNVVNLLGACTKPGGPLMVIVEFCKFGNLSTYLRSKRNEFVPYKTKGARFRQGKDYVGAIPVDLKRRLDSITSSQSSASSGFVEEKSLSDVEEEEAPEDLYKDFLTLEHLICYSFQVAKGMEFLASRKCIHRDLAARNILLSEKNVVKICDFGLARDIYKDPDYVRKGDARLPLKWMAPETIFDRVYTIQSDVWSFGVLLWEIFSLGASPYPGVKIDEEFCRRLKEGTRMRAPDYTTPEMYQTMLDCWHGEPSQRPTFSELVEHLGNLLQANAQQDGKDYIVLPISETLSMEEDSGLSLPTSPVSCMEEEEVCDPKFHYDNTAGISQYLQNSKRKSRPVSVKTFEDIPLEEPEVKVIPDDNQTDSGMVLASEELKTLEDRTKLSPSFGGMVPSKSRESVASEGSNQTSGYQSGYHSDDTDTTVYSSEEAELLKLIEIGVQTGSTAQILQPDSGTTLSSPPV
Description: Inhibition of N-terminal GST tagged recombinant human VEGFR2 (aa805 to 1356 residues) expressed in baculovirus expression system using Poly- (Glu4:Tyr)-biotin as substrate incubated for 80 mins in presence of ATP by kinase glo method

[8] = molecular target: Fibroblast growth factor receptor 3 (Homo sapiens) (UniProt P22607); test: Inhibition of wild type human partial length FGFR3 (R442 to S771 residues) expressed in bacterial expression system at 100 uM by Kinome scan method relative to control
Fibroblast growth factor receptor 3 (Homo sapiens), sequence (P22607 23-806 limits assumed): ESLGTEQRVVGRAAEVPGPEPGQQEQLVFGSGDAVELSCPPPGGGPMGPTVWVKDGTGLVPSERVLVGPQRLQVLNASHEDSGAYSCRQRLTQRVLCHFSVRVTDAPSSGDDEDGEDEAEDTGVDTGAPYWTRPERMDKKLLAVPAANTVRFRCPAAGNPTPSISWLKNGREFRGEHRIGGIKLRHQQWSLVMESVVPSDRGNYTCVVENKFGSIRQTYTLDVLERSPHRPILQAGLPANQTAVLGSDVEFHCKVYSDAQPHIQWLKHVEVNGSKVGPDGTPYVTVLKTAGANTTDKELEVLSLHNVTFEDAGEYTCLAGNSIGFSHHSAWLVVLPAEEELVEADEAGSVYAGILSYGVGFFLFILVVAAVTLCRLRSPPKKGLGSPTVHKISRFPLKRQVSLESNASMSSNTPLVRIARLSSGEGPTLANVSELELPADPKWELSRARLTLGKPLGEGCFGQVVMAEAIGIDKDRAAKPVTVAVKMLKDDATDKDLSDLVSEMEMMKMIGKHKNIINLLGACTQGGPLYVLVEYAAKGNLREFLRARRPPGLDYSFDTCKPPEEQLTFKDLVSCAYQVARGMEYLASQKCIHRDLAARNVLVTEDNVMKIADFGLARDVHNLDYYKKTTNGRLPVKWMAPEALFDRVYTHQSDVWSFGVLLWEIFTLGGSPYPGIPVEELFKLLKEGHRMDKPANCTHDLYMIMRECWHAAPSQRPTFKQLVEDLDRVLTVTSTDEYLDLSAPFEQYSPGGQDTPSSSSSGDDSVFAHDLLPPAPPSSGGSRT

[9] = molecular target: Fibroblast growth factor receptor 1 (Homo sapiens) (UniProt P11362); test: Inhibition of partial length wild type human FGFR1 (P357 to V669 residues) expressed in bacterial expression system at 100 uM by Kinome scan method relative to control
Fibroblast growth factor receptor 1 (Homo sapiens), sequence (P11362 22-822 limits assumed): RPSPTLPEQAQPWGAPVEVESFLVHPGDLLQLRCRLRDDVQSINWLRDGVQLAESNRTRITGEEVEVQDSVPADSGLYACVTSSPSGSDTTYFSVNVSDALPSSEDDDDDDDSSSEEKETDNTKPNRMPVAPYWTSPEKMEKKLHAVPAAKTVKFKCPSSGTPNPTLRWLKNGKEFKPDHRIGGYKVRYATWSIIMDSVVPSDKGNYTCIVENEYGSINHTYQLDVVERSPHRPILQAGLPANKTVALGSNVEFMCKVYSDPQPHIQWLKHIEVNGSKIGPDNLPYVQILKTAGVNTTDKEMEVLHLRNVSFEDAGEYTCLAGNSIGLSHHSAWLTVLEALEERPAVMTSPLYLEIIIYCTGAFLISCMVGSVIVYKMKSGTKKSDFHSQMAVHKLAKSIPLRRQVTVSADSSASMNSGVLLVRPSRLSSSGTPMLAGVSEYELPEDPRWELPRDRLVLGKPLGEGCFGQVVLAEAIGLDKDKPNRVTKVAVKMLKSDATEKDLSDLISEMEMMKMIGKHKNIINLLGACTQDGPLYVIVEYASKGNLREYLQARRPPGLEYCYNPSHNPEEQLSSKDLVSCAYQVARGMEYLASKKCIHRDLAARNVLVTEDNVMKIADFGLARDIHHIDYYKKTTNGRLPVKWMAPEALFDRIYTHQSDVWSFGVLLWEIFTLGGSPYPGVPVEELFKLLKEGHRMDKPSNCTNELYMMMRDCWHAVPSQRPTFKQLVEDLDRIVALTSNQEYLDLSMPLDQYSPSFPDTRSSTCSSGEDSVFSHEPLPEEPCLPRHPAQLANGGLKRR

[10] = molecular target: T1, Mitogen-activated protein kinase 12 (Homo sapiens) (UniProt P53778); test: Inhibition of human full length wild type MAPK12 (M1 to L367 residues) expressed in mammalian expression system at 100 uM by Kinome scan method relative to control
T1 sequence (whole entry): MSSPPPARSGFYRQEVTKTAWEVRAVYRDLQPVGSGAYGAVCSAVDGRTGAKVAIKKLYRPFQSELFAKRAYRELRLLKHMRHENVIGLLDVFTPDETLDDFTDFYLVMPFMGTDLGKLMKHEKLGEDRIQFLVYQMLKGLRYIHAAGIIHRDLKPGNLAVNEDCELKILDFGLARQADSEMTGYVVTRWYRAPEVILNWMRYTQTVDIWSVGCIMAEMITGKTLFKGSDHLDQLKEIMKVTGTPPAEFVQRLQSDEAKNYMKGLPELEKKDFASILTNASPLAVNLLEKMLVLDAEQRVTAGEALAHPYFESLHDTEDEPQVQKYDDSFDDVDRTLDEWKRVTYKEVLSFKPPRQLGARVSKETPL

[11] = molecular target: Insulin receptor (Homo sapiens) (UniProt P06213); test: Inhibition of human wild type partial length INSR (P997 to E1318 resides) expressed in mammalian expression system at 100 uM by Kinome scan method relative to control

Fibroblast growth factor receptor 2, sequence (P21802 whole entry): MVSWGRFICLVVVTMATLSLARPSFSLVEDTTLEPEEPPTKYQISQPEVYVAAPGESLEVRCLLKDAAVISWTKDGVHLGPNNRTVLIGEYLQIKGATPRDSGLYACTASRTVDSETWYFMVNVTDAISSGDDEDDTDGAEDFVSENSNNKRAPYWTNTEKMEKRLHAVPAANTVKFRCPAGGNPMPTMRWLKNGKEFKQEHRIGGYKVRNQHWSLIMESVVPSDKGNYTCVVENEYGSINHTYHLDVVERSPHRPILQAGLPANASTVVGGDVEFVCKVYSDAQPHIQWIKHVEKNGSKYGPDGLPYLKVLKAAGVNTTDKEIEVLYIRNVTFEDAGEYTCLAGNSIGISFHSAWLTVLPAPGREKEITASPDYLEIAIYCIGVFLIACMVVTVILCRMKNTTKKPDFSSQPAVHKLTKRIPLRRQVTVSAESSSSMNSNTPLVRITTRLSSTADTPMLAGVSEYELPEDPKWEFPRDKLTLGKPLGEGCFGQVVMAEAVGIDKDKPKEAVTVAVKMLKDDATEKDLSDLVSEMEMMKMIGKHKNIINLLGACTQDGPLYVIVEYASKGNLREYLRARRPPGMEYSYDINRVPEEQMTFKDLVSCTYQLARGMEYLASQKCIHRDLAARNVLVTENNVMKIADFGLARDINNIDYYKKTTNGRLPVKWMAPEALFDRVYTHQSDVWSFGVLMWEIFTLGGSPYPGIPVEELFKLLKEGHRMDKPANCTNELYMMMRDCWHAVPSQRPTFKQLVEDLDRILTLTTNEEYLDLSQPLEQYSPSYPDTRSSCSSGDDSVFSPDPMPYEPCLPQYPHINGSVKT
Epidermal growth factor receptor, sequence (P00533 whole entry, looked up, stated change not applied): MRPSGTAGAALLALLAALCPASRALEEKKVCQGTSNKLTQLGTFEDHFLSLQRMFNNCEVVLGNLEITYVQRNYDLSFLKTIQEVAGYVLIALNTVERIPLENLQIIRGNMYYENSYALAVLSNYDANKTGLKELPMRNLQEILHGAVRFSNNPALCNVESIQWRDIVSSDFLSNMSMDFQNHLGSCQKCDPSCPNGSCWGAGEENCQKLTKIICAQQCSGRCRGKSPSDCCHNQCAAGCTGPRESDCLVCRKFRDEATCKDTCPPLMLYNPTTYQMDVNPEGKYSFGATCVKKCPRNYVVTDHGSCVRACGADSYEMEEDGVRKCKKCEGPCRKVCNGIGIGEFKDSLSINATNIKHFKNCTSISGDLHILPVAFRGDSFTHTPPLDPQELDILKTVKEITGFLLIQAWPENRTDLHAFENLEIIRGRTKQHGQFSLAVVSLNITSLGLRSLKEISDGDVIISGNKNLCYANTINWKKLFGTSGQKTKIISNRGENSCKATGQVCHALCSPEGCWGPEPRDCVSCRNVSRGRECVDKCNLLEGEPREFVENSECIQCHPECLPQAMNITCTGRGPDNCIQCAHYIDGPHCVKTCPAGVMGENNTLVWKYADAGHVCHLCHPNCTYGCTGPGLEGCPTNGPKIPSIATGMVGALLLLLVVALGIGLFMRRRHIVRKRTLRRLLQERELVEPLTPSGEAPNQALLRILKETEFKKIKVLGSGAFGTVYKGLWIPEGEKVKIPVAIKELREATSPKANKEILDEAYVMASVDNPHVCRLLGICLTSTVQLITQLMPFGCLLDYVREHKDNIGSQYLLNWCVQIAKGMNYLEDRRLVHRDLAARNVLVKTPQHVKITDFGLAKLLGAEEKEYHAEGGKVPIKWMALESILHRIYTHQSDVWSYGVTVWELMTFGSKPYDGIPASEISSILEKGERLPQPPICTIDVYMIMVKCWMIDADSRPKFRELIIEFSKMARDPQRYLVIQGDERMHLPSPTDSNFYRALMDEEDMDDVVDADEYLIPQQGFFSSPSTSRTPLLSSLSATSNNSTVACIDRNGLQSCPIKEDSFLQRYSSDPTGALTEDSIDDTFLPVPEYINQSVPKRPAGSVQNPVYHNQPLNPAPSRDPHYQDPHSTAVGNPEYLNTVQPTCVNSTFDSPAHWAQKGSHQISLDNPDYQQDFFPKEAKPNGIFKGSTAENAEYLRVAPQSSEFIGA

| pIC50 [1] | pIC50 [2] | pIC50 (SNU-16) | pIC50 (SNU1) | Compound | also measured |
| --- | --- | --- | --- | --- | --- |
| 5.65 | 8.27 | – | – | C=CC(=O)N1CC[C@@H](n2nc(-c3cnc4ccccc4c3)c3c(N)ncnc32)C1 | – |
| – | – | 7.37 | < 5.30 | COc1cc(C#Cc2nn([C@H]3CCN(C(=O)/C=C/CN(C)C)C3)c3ncnc(N)c23)cc(OC)c1 | – |
| – | – | 6.44 | < 5.30 | C=CC(=O)NCCn1nc(C#Cc2cc(OC)cc(OC)c2)c2c(N)ncnc21 | – |
| – | – | 8.13 | < 5.30 | C=CC(=O)N1CC(n2nc(C#Cc3cc(OC)cc(OC)c3)c3c(N)ncnc32)C1 | remaining at 0.5 h [3]: 92%; remaining at 0.5 h [4]: 83%; AUC(0-t) at 6 h [5]: 0.07 µM·h; logD [6]: 3 |
| 6.59 | 6.13 | – | – | C=CC(=O)N1CC[C@H](n2nc(-c3cnc4ccccc4c3)c3c(N)ncnc32)C1 | – |
| – | – | 7.49 | < 5.30 | C=CC(=O)N1CC(Cn2nc(C#Cc3cc(OC)cc(OC)c3)c3c(N)ncnc32)C1 | – |
| – | – | 7.48 | < 5.30 | C=CC(=O)N1CCC(n2nc(C#Cc3cc(OC)cc(OC)c3)c3c(N)ncnc32)CC1 | – |
| – | – | 8.08 | < 5.30 | COc1cc(C#Cc2nn(C3CN(C(=O)/C=C/CN(C)C)C3)c3ncnc(N)c23)cc(OC)c1 | remaining at 0.5 h [3]: 98%; remaining at 0.5 h [4]: 77%; AUC(0-t) at 6 h [5]: 1.27 µM·h; logD [6]: 2.3 |
| 7.77 | 6.95 | – | – | C=CC(=O)N1CC[C@H](n2cc(-c3cnc4ccccc4c3)c3c(N)ncnc32)C1 | – |
| 6.50 | 9.40 | – | – | C=CC(=O)N1CC[C@@H](n2cc(-c3cnc4ccccc4c3)c3c(N)ncnc32)C1 | – |
| 7.24 | 8.92 | – | – | C=CC(=O)N1CCC(n2cc(-c3cnc4ccccc4c3)c3c(N)ncnc32)C1 (racemic) | – |
| – | < 5.30 | – | – | C=CC(=O)N1CC[C@H](n2nc(-c3cc(OC)cc(OC)c3)c3c(N)ncnc32)C1 | – |
| – | < 5.30 | 5.85 | < 5.30 | CCC(=O)N1CC[C@H](n2nc(C#Cc3cc(OC)cc(OC)c3)c3c(N)ncnc32)C1 | – |
| 6.62 | < 5.30 | – | – | C=CC(=O)N1CC[C@H](n2nc(CCc3cc(OC)cc(OC)c3)c3c(N)ncnc32)C1 | – |
| 6.17 | < 5.30 | – | – | C=CC(=O)N1CC[C@H](n2nc(C(=O)Nc3cc(OC)cc(OC)c3)c3c(N)ncnc32)C1 | – |

| Compound | pIC50 [1] | pIC50 [2] | pIC50 (SNU-16) | pIC50 (SNU1) | also measured |
| --- | --- | --- | --- | --- | --- |
| C=CC(=O)N1CC[C@H](n2nc(C#Cc3cc(OC)cc(OC)c3)c3c(N)ncnc32)C1 [FUTIBATINIB] | – | < 5.30 | 8.43 | < 5.30 | remaining at 0.5 h [3]: 69%; pIC50 [7]: 5.63; remaining at 0.5 h [4]: 66%; AUC(0-t) at 6 h [5]: 23.9 µM·h; logD [6]: 3.4; inhibition [8]: 97.8%; inhibition [9]: 99.1%; inhibition [10]: 69%; inhibition [11]: 55% |
| C=CC(=O)N1CC[C@@H](n2nc(C#Cc3cc(OC)cc(OC)c3)c3c(N)ncnc32)C1 | – | – | 6.95 | < 5.30 | pIC50 [7]: 5.83 |

From ChEMBL document CHEMBL5252660 (ACS Med Chem Lett, 2023)
